The experiment concerns human conjunctival tissue mast cells. Nature of the experiment: Inhibition of anti-human IgE-induced histamine release from human conjunctival tissue mast cells (HCTMC). Format: cell-based. The method, then:
Methods detailing preparation of monodispersed HCTMC and mediator release studies with these cells have been described (U.S. Pat. No. 5,360,720 and Miller et al, Ocular Immunology and Inflammation, 4(1):39-49 (1996)). Briefly, human conjunctival tissue mast cells were isolated from post-mortem tissue donors obtained within 8 hours of death by various eye banks and transported in Dexsol® corneal preservation medium, or equivalent. Tissues were enzymatically digested by repeated exposure (30 min. at 37° C.) to collagenase and hyaluronidase (2× with 200 U each/gram tissue, then 2-4× with 2000 U each/gram tissue) in Tyrode's buffer containing 0.1% gelatin. (Tyrode's buffer (in mM): 137 NaCl, 2.7 KCl, 0.35 NaH2PO4, 1.8 CaCl2, 0.98 MgCl2, 11.9 NaHCO3, and 5.5 glucose). Each digestion mixture was filtered over Nitex® cloth (100 μm mesh, Tetko, Briarcliff Manor, N.Y.) and washed with an equal volume of buffer. Filtrates were centrifuged at 825×g (7 min). Pellets were resuspended in buffer then combined for enrichment over a […] Percoll® cushion. The enriched pellet was washed, resuspended in supplemented RPMI 1640 medium and incubated at 37° C. to equilibrate.
Cells were harvested from the culture plate and counted for viability (trypan blue exclusion) and mast cell number (toluidine blue O). Mast cells (5000/tube; 1 mL final volume) were challenged (37° C.) for 15 min with goat-anti-human IgE (10 μg/mL) following treatment (15 minutes; 37° C.) with test drug or Tyrode's buffer. Total and non-specific release controls were exposed to 0.1% Triton X-100 and goat IgG (10 μg/mL), respectively. The reaction was terminated by centrifugation (500×g, 4° C., 10 min). Supernatants were stored at −20° C. until analyzed for histamine content by RIA (Beckman Coulter, Chicago, Ill.).
All test drugs were made to solution immediately prior to use. Each was dissolved in DMSO at 10 mM or greater concentration and then diluted in Tyrode's buffer containing 0.1% gelatin over the concentration for evaluation.
Inhibition of histamine release was determined by direct comparison of with anti-IgE challenged mast cells using Dunnett's t-test (Dunnett, “A multiple comparison procedure for comparing treatments with a control”, J. Amer. Stat. Assoc. (1955), 50:1096-1121).

[1] abbreviates: individual determinations, mast cells 5000/tube, 15 min drug treatment at 37° C., then 15 min challenge with goat-anti-human IgE (10 μg/mL), histamine by RIA, read-out: IC50(nM), inhibition of histamine release.
[2] abbreviates: Homo sapiens, Mast cell, bracketed value = mean of the two determinations, anti-IgE challenged human conjunctival mast cells, read-out: IC50(nM), inhibition of histamine release, value in square brackets.

Values joined by “and” are separate entries in the source; they are usually repeats but may differ in a detail not shown here. Equal values may be shown once. Read-outs that look alike come from different tables or passages of the source.

By IC50 is commonly meant the point on the concentration scale where inhibition reaches its midpoint. Take `CC(O)CC(=O)Nc1ccccc1SSc1ccccc1NC(=O)CC(C)O` (stereo not drawn) [Compound 4]: the IC50 under setting [1] is 3180 nM and < 1000 nM.

On to `CCOC(=O)Nc1ccccc1SSc1ccccc1NC(=O)OCC` [Compound 5], for which the IC50 under setting [2] is 1190 nM. On to `CC(=O)Nc1ccccc1SSc1ccccc1NC(C)=O` [Compound 2], for which the IC50 by setting is: under setting [2], 481 nM; under setting [1], 656 nM and 306 nM. As for `CC(C)(C)C(=O)Nc1ccccc1SSc1ccccc1NC(=O)C(C)(C)C` [Compound 6], for the setting “Homo sapiens, Mast cell, 0.25 h, individual determinations, mast cells 5000/tube, 15 min drug treatment at 37° C., then 15 min challenge with goat-anti-human IgE (10 μg/mL), histamine by RIA, read-out: IC50(nM), inhibition of histamine release”, the IC50 came out at 1700 nM. With `C=C(C)C(=O)Nc1ccccc1SSc1ccccc1NC(=O)C(=C)C` [Compound 3], the IC50 by setting is: under setting [2], 491 nM; under setting [1], 690 nM and 292 nM.

On to `C=CCC(=O)Nc1ccccc1SSc1ccccc1NC(=O)CC=C` [Compound 1], for which the IC50 is 56 nM under setting [2]; 85 nM and 27 nM under setting [1].

(Values after patent publication US6452052B1, “Aniline disulfide derivatives for treating allergic diseases” (Alcon Universal Ltd., priority 2000, dated 2002).)
